From patent publication US10835533B2, “1 -((3S,4R)-4-(3-fluorophenyl)-1-(2-methoxyethyl)pyrrolidin-3-yl)-3-(4-methyl-3-(2-methylpyrimidin-5-yl)-1-phenyl-1H-pyrazol-5-yl)urea as a TrkA kinase inhibitor” (Array BioPharma Inc., priority 2014, dated 2020)

Tests used:
[1] = molecular target: T1, His-tagged recombinant human TrkA (Homo sapiens, UniProt P04629); experiment: TrkA LanthaScreen Eu Kinase Binding Assay (Example A); conditions: assay of Example A; 60-minute incubation at 22° C.; read-out: averaged IC50 value, TrkA binding
T1 construct: 6HIS tagged cytoplasmic domain from Invitrogen, Catalog No. PV3144; purchased Invitrogen PV3144
Protocol: TrkA binding activity was determined in a TrkA LanthaScreen™ Eu Kinase Binding Assay. 5 nM His-tagged recombinant human TrkA (6HIS tagged cytoplasmic domain from Invitrogen, Catalog No. PV3144) was incubated with 4 nM Alexa-Fluor® Tracer 236 (Invitrogen Catalog No. PV5592), 2 nM biotinylated anti-His (Invitrogen Cat. No. PV6090), and 2 nM europium-labeled Streptavidin (Invitrogen Cat. No. PV5899), in buffer (25 mM MOPS, pH 7.5, 5 mM MgCl2, 0.005% Triton X-100). Three fold serial dilutions of Compound 1, compound 2 or compound 3 in DMSO were added to a final percentage of 2% DMSO. After 60-minute incubation at 22° C., the reaction was measured using the EnVision mutlimode plate reader (PerkinElmer) via TR-FRET dual wavelength detection at […]. The percent of control was calculated using a ratiometric emission factor. The IC50 value was determined by fitting a four parameter model to the percent of control data.

[2] = IV clearance, 1 mg/kg IV, monkey; format: in vivo; conditions: for in vivo/in vitro correction factor: microsomal CLh divided by IV CL; for clearance: plasma, 1 mg/kg IV
Protocol: In Table 1, the predicted human IV clearance values were calculated from compound concentration-versus-time data in plasma collected from pre-clinical species (mouse, rat, dog and monkey) following 1 mg/kg intravenous (IV) doses. Concentrations of compound in plasma were measured by LC-MS (liquid chromatography-mass spectrometry). AUCinf values (Area under the plasma concentration-time curve for a dosing interval from time 0 extrapolated to infinity) for individual Cp/t curves (concentration of the drug in plasma at any time t) were determined using linear-trapezoidal integration and first order extrapolation from terminal points of the Cp/t curves, and clearance (CL) was calculated using Dose/AUCinf.

[3] = Liver microsomal clearance, mouse; format: in vitro ADME; conditions: pH 7.4; Mouse liver microsomes; 1 mg/mL; 20 minutes
Protocol: (§1) The predicted hepatic clearance (CLh) value was calculated by scaling the in vitro half-life (t1/2) for stability of the compound in liver microsomes (1 mg/mL; 20 minutes) using the physical and physiological scaling factors used to predict intrinsic clearance (CLint) and hepatic clearance (CLhep) listed in Table 2 and employed in the following equations: […]
(§2) where D is the amount of cytochrome P450-related protein per mass of liver, W is the average mass of liver present per weight of animal, C is the liver microsomal concentration, and Q is the species-dependent hepatic blood flow.
(§3) A 100 mM potassium phosphate assay buffer solution (KPB) was prepared as follows. Both KH2PO4 and K2HPO4 were dissolved separately in reagent grade water resulting in final concentrations 100 mM. A 75:25 mixture v/v of K2HPO4:KH2PO4 was prepared and the pH of the solution was adjusted to 7.4 using diluted HCl or diluted NaOH solutions. Stock solutions of Compound 1, Compound 2 and Compound 3 were prepared at 10 mM (active compound) in DMSO. The stock solution was diluted immediately before use to 2.5 μM using the KPB solution to create the working standard. All test compounds were completely soluble in DMSO by visual inspection at room temperature. The NADPH-regenerating solution (NRS) was prepared on the day of analysis by diluting one volume of 17 mg/mL NADP^+ with one volume of 78 mg/mL glucose-6-phosphate (both prepared in KPB, pH 7.4) and 7.9 volumes of 20 mM MgCl2. The final concentrations of NADP^+ and glucose-6-phosphate were 1.7 mg/mL and 7.8 mg/mL, respectively. […]
(§4) All calculations were performed using BioAssay Enterprise. The mean peak area ratios were calculated by averaging the peak area ratios (n=2) of Compound 1, Compound 2, Compound 3, and the internal standard for each sample. Percent remaining was calculated by determining the ratio of the peak area ratio at each time point to the peak area ratio of the time-zero samples. The rate of loss of test compound (km) was determined by linear regression of −ln(f(t)) versus time. […] The t1/2 was determined dividing ln(2) by km. […]

[4] = Liver microsomal clearance, monkey; format: in vitro ADME; conditions: pH 7.4; Monkey liver microsomes; 1 mg/mL; 20 minutes
Protocol: as §1, §2, §3, §4

[5] = Liver microsomal clearance, human; format: in vitro ADME; conditions: pH 7.4; Human liver microsomes; 1 mg/mL; 20 minutes
Protocol: as §1, §2, §3, §4

T1 sequence (P04629 440-796 limits assumed): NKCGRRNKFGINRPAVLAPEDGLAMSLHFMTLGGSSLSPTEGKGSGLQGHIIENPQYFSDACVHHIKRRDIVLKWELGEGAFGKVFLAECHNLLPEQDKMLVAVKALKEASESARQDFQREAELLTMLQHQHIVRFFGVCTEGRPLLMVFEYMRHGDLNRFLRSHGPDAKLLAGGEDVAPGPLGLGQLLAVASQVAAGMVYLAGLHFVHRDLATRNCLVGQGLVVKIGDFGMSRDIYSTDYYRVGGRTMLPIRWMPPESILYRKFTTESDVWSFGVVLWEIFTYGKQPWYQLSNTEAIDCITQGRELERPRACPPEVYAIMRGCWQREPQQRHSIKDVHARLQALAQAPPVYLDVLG

SMILES | IC50 [1] | in vivo/in vitro correction factor [2] | clearance [2] | CLhep predicted at 1 μM [3] | CLhep predicted at 1 μM [4] | CLhep predicted at 1 μM [5]
COCCN1C[C@@H](NC(=O)Nc2c(C)c(-c3cnc(C)nc3)nn2-c2ccccc2)[C@H](c2cccc(F)c2)C1 [Compound 1, 1-((3S,4R)-4-(3-fluorophenyl)-1-(2-methoxyethyl)pyrrolidin-3-yl)-3-(4-methyl-3-(2-methylpyrimidin-5-yl)-1-phenyl-1H-pyrazol-5-yl)urea] | 1.1 nM | 1.65 | 20 mL/min/kg | 50 mL/min/kg | 33 mL/min/kg | 9.8 mL/min/kg
COCCN1C[C@@H](NC(=O)Nc2c(C)c(-c3cnc(C)nc3)nn2-c2ccccc2)[C@H](c2ccc(F)c(F)c2)C1 [Compound 2, 1-((3S,4R)-4-(3,4-difluorophenyl)-1-(2-methoxyethyl)pyrrolidin-3-yl)-3-(4-methyl-3-(2-methylpyrimidin-5-yl)-1-phenyl-1H-pyrazol-5-yl)urea] | 1.5 nM | 2.11 | 18 mL/min/kg | 57 mL/min/kg | 38 mL/min/kg | 14 mL/min/kg
COCCN1C[C@@H](NC(=O)Nc2c(C)c(-c3cnn(C)c3)nn2-c2ccccc2)[C@H](c2ccc(F)cc2)C1 [Compound 3, 1-(1′,4-dimethyl-1-phenyl-1H,1′H-[3,4′-bipyrazol]-5-yl)-3-((3S,4R)-4-(4-fluorophenyl)-1-(2-methoxyethyl)pyrrolidin-3-yl)urea] | 1.7 nM | 0.84 | 38 mL/min/kg | 60 mL/min/kg | 32 mL/min/kg | 10 mL/min/kg
